# Source: patent publication US20220112187A1, “PYRAZOLOPYRIDINE AMINE COMPOUNDS FOR THE TREATMENT OF AUTOIMMUNE DISEASE” (Hoffmann-La Roche Inc., priority 2018, published 2022)
# Biological target: T1, human TLR9 (Homo sapiens, UniProt Q9NR96)
# T1 sequence (Q9NR96 26-1032): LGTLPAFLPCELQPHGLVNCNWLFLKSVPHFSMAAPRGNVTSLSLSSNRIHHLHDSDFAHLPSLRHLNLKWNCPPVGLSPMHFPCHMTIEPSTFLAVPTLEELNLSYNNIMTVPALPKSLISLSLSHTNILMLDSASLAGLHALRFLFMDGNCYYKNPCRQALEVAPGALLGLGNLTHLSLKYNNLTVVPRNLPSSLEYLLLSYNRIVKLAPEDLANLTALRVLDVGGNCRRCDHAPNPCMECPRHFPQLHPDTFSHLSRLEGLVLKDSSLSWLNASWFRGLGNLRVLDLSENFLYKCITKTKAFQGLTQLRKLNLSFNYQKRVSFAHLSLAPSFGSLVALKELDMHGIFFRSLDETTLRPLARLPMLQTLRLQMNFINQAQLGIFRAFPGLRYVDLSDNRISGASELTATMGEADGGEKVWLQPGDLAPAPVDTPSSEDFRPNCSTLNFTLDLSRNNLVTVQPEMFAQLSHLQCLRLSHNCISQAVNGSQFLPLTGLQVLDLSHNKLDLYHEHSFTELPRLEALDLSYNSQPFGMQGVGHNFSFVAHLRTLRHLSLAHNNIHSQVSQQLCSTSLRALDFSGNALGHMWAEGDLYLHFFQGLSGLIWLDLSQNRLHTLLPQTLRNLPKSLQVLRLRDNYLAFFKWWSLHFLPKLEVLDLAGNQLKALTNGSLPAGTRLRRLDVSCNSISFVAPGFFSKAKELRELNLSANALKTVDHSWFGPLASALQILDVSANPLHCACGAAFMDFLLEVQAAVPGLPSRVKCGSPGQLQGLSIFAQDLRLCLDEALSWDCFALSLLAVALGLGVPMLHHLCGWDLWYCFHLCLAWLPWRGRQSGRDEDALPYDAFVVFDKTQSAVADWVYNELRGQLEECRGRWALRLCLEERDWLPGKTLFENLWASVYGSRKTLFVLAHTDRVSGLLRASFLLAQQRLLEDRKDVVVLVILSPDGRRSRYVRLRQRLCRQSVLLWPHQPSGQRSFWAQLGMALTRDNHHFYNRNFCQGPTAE
# Assay: HEK293-Blue-hTLR-9 cells assay (SEAP reporter, ODN2006 stimulation)
# Assay type: cell-based
# Details: HEK293-Blue-hTLR9 cells, ODN2006 ligand, 20 hrs incubation
# From the text: A stable HEK293-Blue-hTLR-9 cell line was purchased from InvivoGen (Cat. #: hkb-htlr9, San Diego, Calif., USA). These cells were originally designed for studying the stimulation of human TLR9 by monitoring the activation of NF-κB. A SEAP (secreted embryonic alkaline phosphatase) reporter gene was placed under the control of the IFN-β minimal promoter fused to five NF-κB and AP-1-binding sites. The SEAP was induced by activating NF-κB and AP-1 via stimulating HEK-Blue hTLR9 cells with TLR9 ligands. Therefore the reporter expression was declined by TLR9 antagonist under the stimulation of a ligand, such as ODN2006 (Cat. #: tlr1-2006-1, Invivogen, San Diego, Calif., USA), for incubation of 20 hrs. The cell culture supernatant SEAP reporter activity was determined using QUANTI-Blue™ kit (Cat. #: rep-qb1, Invivogen, San Diego, Calif., USA) at a wavelength of 640 nm, a detection medium that turns purple or blue in the presence of alkaline phosphatase.
# HEK293-Blue-hTLR9 cells were incubated at a density of 250,000˜450,000 cells/mL in a volume of 170 μL in a 96-well plate in Dulbecco's Modified Eagle's medium (DMEM) containing 4.5 g/L glucose, 50 U/mL penicillin, […], […], 2 mM L-glutamine, 10% (v/v) heat-inactivated fetal bovine serum with addition of 20 μL test compound in a serial dilution in the presence of final DMSO at 1% and 10 μL of 20 uM ODN2006 in above DMEM, perform incubation under 37° C. in a CO2 incubator for 20 hrs. Then 20 μL of the supernatant from each well was incubated with 180 μL Quanti-blue substrate solution at 37° C. for 2 hrs and the absorbance was read at 620-655 nm using a spectrophotorneter. The signalling pathway that TLR9 activation leads to downstream NF-κB activation has been widely accepted, and therefore similar reporter assay was modified for evaluating TLR9 antagonist.
row,Compound,IC50
1,"C[C@@H]1CN(c2ccc(C#N)n3nccc23)C[C@H](CN2CCC3(CCCNC3)C2)O1 (stereo partly drawn) [Example 25, 4-[(2S,6R)-2-(2,9-diazaspiro[4.5]decan-2-ylmethyl)-6-methyl-morpholin-4-yl]pyrazolo[1,5-a]pyridine-7-carbonitrile]",88 nM
2,"C[C@@H]1CN(c2ccc(C#N)n3nccc23)C[C@H](CN2CCC3(CCCNC3)CC2)O1 [Example 27, 4-[(2S,6R)-2-(2,9-diazaspiro[5.5]undecan-9-ylmethyl)-6-methyl-morpholin-4-yl]pyrazolo[1,5-a]pyridine-7-carbonitrile]",65 nM
3,"CC1CN(C[C@H]2CN(c3ccc(C#N)n4nccc34)C[C@@H](C)O2)CCN1 (stereo partly drawn) [Example 28, 4-[(2R,6S)-2-methyl-6-[(3-methylpiperazin-1-yl)methyl]morpholin-4-yl]pyrazolo[1,5-a]pyridine-7-carbonitrile]",14000 nM
4,"C[C@@H]1CN(c2ccc(C#N)n3nccc23)C[C@H](CN2CCC(C)(N)CC2)O1 [Example 29, 4-[(2S,6R)-2-[(4-amino-4-methyl-1-piperidyl)methyl]-6-methyl-morpholin-4-yl]pyrazolo[1,5-a]pyridine-7-carbonitrile]",220 nM
5,"C[C@@H]1CN(c2ccc(C#N)n3nccc23)C[C@H](CN2CC3CCC2CN3)O1 (stereo partly drawn) [Example 30, 4-[(2S,6R)-2-(2,5-diazabicyclo[2.2.2]octan-2-ylmethyl)-6-methyl-morpholin-4-yl]pyrazolo[1,5-a]pyridine-7-carbonitrile]",3200 nM
6,"C[C@@H]1CN(c2ccc(C#N)n3nccc23)C[C@H](CN2CC3CCC(C2)N3)O1 [Example 31, 4-[(2S,6R)-2-(3,8-diazabicyclo[3.2.1]octan-3-ylmethyl)-6-methyl-morpholin-4-yl]pyrazolo[1,5-a]pyridine-7-carbonitrile]",10000 nM
7,"C[C@@H]1CN(c2ccc(C#N)n3nccc23)C[C@H](CN2CCCC3(CCNCC3)C2)O1 [Example 32, 4-[(2S,6R)-2-(2,9-diazaspiro[5.5]undecan-2-ylmethyl)-6-methyl-morpholin-4-yl]pyrazolo[1,5-a]pyridine-7-carbonitrile]",65 nM
8,"C[C@@H]1CN(c2ccc(C#N)n3nccc23)C[C@H](CN2CCCC3(CNC3)C2)O1 [Example 33, 4-[(2S,6R)-2-(2,6-diazaspiro[3.5]nonan-6-ylmethyl)-6-methyl-morpholin-4-yl]pyrazolo[1,5-a]pyridine-7-carbonitrile]",120 nM
9,"C[C@@H]1CN(c2ccc(C#N)n3nccc23)C[C@H](CN2CCC(N)C(F)(F)C2)O1 (stereo partly drawn) [Example 34, 4-[(2S,6R)-2-[(4-amino-3,3-difluoro-1-piperidyl)methyl]-6-methyl-morpholin-4-yl]pyrazolo[1,5-a]pyridine-7-carbonitrile]",99000 nM
10,"C[C@@H]1CN(c2ccc(C#N)n3nccc23)C[C@H](CN2CC(N)C(F)(F)C2)O1 (stereo partly drawn) [Example 35, 4-[(2S,6R)-2-[(4-amino-3,3-difluoro-pyrrolidin-1-yl)methyl]-6-methyl-morpholin-4-yl]pyrazolo[1,5-a]pyridine-7-carbonitrile]",> 100000 nM
11,"C[C@@H]1CN(c2ccc(C#N)n3nccc23)C[C@H](CN2CC3CCC(C2)C3N)O1 (stereo partly drawn) [Example 36, 4-[(2S,6R)-2-[(8-amino-3-azabicyclo[3.2.1]octan-3-yl)methyl]-6-methyl-morpholin-4-yl]pyrazolo[1,5-a]pyridine-7-carbonitrile]",520 nM
12,"C[C@@H]1CN(c2ccc(C#N)n3nccc23)C[C@H](CN2C3CCC2CC(N)C3)O1 (stereo partly drawn) [Example 37, 4-[(2S,6R)-2-[(3-amino-8-azabicyclo[3.2.1]octan-8-yl)methyl]-6-methyl-morpholin-4-yl]pyrazolo[1,5-a]pyridine-7-carbonitrile]",78 nM
13,"C[C@@H]1CN(c2ccc(C#N)n3nccc23)C[C@H](CN2CCN[C@H](c3ccccc3)C2)O1 [Example 38, 4-[(2R,6S)-2-methyl-6-[[(3R)-3-phenylpiperazin-1-yl]methyl]morpholin-4-yl]pyrazolo[1,5-a]pyridine-7-carbonitrile]",1900 nM
14,"C[C@@H]1CN(c2ccc(C#N)n3nccc23)C[C@H](CN2CCC(N3CCNCC3)CC2)O1 [Example 39, 4-[(2R,6S)-2-methyl-6-[(4-piperazin-1-yl-1-piperidyl)methyl]morpholin-4-yl]pyrazolo[1,5-a]pyridine-7-carbonitrile]",96 nM
15,"C[C@@H]1CN(c2ccc(C#N)n3nccc23)C[C@H](CN2CCNC3(CC3)C2)O1 [Example 40, 4-[(2S,6R)-2-(4,7-diazaspiro[2.5]octan-7-ylmethyl)-6-methyl-morpholin-4-yl]pyrazolo[1,5-a]pyridine-7-carbonitrile]",13000 nM
16,"C[C@@H]1CN(c2ccc(C#N)n3nccc23)C[C@H](CN2CCC3NCCC3C2)O1 (stereo partly drawn) [Example 41, 4-[(2S,6R)-2-(1,2,3,3a,4,6,7,7a-octahydropyrrolo[3,2-c]pyridin-5-ylmethyl)-6-methyl-morpholin-4-yl]pyrazolo[1,5-a]pyridine-7-carbonitrile]",140 nM
17,"C[C@@H]1CN(c2ccc(C#N)n3nccc23)C[C@H](CN2CCC3(CCCCN3)C2)O1 (stereo partly drawn) [Example 42, 4-[(2S,6R)-2-(2,6-diazaspiro[4.5]decan-2-ylmethyl)-6-methyl-morpholin-4-yl]pyrazolo[1,5-a]pyridine-7-carbonitrile]",1700 nM
18,"C[C@@H]1CN(c2ccc(C#N)n3nccc23)C[C@H](CN2C3CCC2CNC3)O1 [Example 43, 4-[(2S,6R)-2-(3,8-diazabicyclo[3.2.1]octan-8-ylmethyl)-6-methyl-morpholin-4-yl]pyrazolo[1,5-a]pyridine-7-carbonitrile]",10000 nM
19,"C[C@@H]1CN(c2ccc(C#N)n3nccc23)C[C@H](CN2CCCC3(CCNC3)C2)O1 (stereo partly drawn) [Example 44, 4-[(2S,6R)-2-(2,7-diazaspiro[4.5]decan-7-ylmethyl)-6-methyl-morpholin-4-yl]pyrazolo[1,5-a]pyridine-7-carbonitrile]",110 nM
20,"C[C@@H]1CN(c2ccc(C#N)n3nccc23)C[C@H](CN2CC3CCCNC3C2)O1 (stereo partly drawn) [Example 45, 4-[(2S,6R)-2-(1,2,3,4,4a,5,7,7a-octahydropyrrolo[3,4-b]pyridin-6-ylmethyl)-6-methyl-morpholin-4-yl]pyrazolo[1,5-a]pyridine-7-carbonitrile]",970 nM
21,"C[C@@H]1CN(c2ccc(C#N)n3nccc23)C[C@H](CN2CC3(CCCNCC3)C2)O1 [Example 46, 4-[(2S,6R)-2-(2,8-diazaspiro[3.6]decan-2-ylmethyl)-6-methyl-morpholin-4-yl]pyrazolo[1,5-a]pyridine-7-carbonitrile]",140 nM
22,"C[C@@H]1CN(c2ccc(C#N)n3nccc23)C[C@H](CN2CCC3(CCCCN3)CC2)O1 [Example 47, 4-[(2S,6R)-2-(1,9-diazaspiro[5.5]undecan-9-ylmethyl)-6-methyl-morpholin-4-yl]pyrazolo[1,5-a]pyridine-7-carbonitrile]",190 nM
23,"C[C@@H]1CN(c2ccc(C#N)n3nccc23)C[C@H](CN2CCC3(CCN3)CC2)O1 [Example 48, 4-[(2S,6R)-2-(1,7-diazaspiro[3.5]nonan-7-ylmethyl)-6-methyl-morpholin-4-yl]pyrazolo[1,5-a]pyridine-7-carbonitrile]",250 nM
